Test results from US11414431B2, “Substituted pyrazolo[1,5-a]pyrimidines as TYK2 inhibitors” (Nimbus Lakshmi, Inc., priority 2018, dated 2022).

Test system: IL-12 induced STAT4 phosphorlyation mediated by TYK2/JAK2
Assay: IL-12 Induced pSTAT4 in Human PBMC
Type: cell-based
Settings: 1.7 ng/mL IL-12 for 30 minutes
In short: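 Thawed human PBMC pre-incubated with compound 1 hr at 37° C (0.1% DMSO final), then stimulated 30 minutes with IL-12 at 1.7 ng/mL final. pSTAT4 and total STAT4 measured in cell lysates with MSD reagents.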

CNc1cc(Nc2cccn([C@@H]3CCC[C@H](C#N)C3)c2=O)nc2c(C(=O)NC3CC[C@@H]3OC)cnn12 (stereo partly drawn) [Compound I-115, 5-((1-((1R,3S)-3-Cyanocyclohexyl)-2-oxo-1,2-dihydropyridin-3-yl)amino)-N-((trans-1,2)-2-methoxycyclobutyl)-7-(methylamino)pyrazolo[1,5-a]pyrimidine-3-carboxamide] was tested, and the IC50 (0.5 h) was under 0.1 µM.
For CNc1cc(-c2cn([C@H]3CCOC[C@@H]3F)c3ncccc23)nc2c(C(=O)N[C@H]3CC[C@@H]3OC)cnn12 [Compound I-802], the IC50 was under 0.1 µM.
In the case of CNc1cc(Nc2cccn([C@H]3CCCOC3)c2=O)nc2c(C(=O)N[C@H]3CC[C@@H]3F)cnn12 [Compound I-198], the IC50 is reported as under 0.1 µM.
CNc1cc(-c2cn([C@@H]3CC3(F)F)c3ncccc23)nc2c(C(=O)N[C@H]3CC[C@H]3O)cnn12 [Compound I-549] showed an IC50 of under 0.1 µM.
CNc1cc(Nc2cccn([C@H]3[C@@H]4COC[C@@H]43)c2=O)nc2c(C(=O)N[C@@H]3C[C@H]3OC)cnn12 [Compound I-25, 5-((1-((1R,5S,6r)-3-Oxabicyclo[3.1.0]hexan-6-yl)-2-oxo-1,2-dihydropyridin-3-yl)amino)-N-((1R,2R)-2-methoxycyclopropyl)-7-(methylamino)pyrazolo[1,5-a]pyrimidine-3-carboxamide] gave an IC50 of under 0.1 µM.
With CNc1cc(-c2cn([C@H]3CCOC[C@H]3F)c3ncccc23)nc2c(C(=O)NC3CC[C@H]3O)cnn12 (stereo partly shown) [Compound I-591] the IC50 was 0.5 to 1 µM.
With CNc1cc(Nc2cccn([C@@H]3CC[C@@H]3O)c2=O)nc2c(C(=O)N[C@H]3CCC3(F)F)cnn12 [Compound I-290] the IC50 was under 0.1 µM.
Compound CNc1cc(-c2cnc3n([C@H]4CCOC[C@H]4F)cccc2-3)nc2c(C(=O)NC3CC[C@H]3O)cnn12 (stereo partly shown) [Compound I-942] has an IC50 of 0.5 to 1 µM.
CO[C@H]1CC[C@@H]1NC(=O)c1cnn2c(N)cc(-c3cnc4n([C@@H]5COC[C@H]5OC)cccc3-4)nc12 [Compound I-1010] was tested, and the IC50 was 0.1 to 0.5 µM.
Compound CNc1cc(-c2cnc3n([C@H]4COC[C@@H]4OC)cccc2-3)nc2c(C(=O)N[C@H]3CC[C@@H]3F)cnn12 [Compound I-833] has an IC50 of under 0.1 µM.
Work on CNc1cc(-c2cn([C@H]3[C@@H]4COC[C@@H]43)c3ncccc23)nc2c(C(=O)N[C@H]3CC[C@@H]3O)cnn12 [Compound I-915] yielded an IC50 of under 0.1 µM.
CO[C@@H]1CC[C@H]1NC(=O)c1cnn2c3c(c(Nc4cccn(C(C)C)c4=O)nc12)OCCN3 [Compound I-760] showed an IC50 of under 0.1 µM.
CNc1cc(-c2cnc3n([C@@H]4CCOC[C@@H]4F)cccc2-3)nc2c(C(=O)NC3CC[C@H]3O)cnn12 (stereo partly drawn) [Compound I-939, 5-(7-((3R,4R)-3-fluorotetrahydro-2H-pyran-4-yl)-7H-pyrrolo[2,3-b]pyridin-3-yl)-N-((cis-1,2)-2-hydroxycyclobutyl)-7-(methylamino)pyrazolo[1,5-a]pyrimidine-3-carboxamide] gave an IC50 (0.5 h) of 0.1 to 0.5 µM.
Work on CNc1cc(-c2cn([C@H]3CC3(F)F)c3ncccc23)nc2c(C(=O)N[C@@H]3COC[C@@H]3O)cnn12 [Compound I-711] yielded an IC50 of under 0.1 µM.
CNc1cc(-c2cnc3n([C@H]4COC[C@@H]4OC)cccc2-3)nc2c(C(=O)N[C@@H]3CC[C@H]3OC)cnn12 [Compound I-881] gave an IC50 of under 0.1 µM.
Work on CNc1cc(-c2cnc3n([C@H]4COC[C@@H]4OC)cccc2-3)nc2c(C(=O)N[C@@H]3CC[C@@H]3F)cnn12 [Compound I-840] yielded an IC50 of under 0.1 µM.
Compound CNc1cc(-c2cn([C@H]3C[C@@H](COC)C3)c3ncccc23)nc2c(C(=O)N[C@@H]3CC[C@@H]3O)cnn12 [Compound I-914] has an IC50 of under 0.1 µM.
CNc1cc(-c2cnc3n(CCCN4CCOCC4)cccc2-3)nc2c(C(=O)N[C@H]3CC[C@@H]3OC)cnn12 [Compound I-990] gave an IC50 of under 0.1 µM.
CNc1cc(Nc2cccn(C(C)C)c2=O)nc2c(C(=O)N[C@@H]3CC[C@H]3F)cnn12 [Compound I-147] was tested, and the IC50 was under 0.1 µM.
In the case of CNc1cc(-c2cn([C@@H]3COC[C@H]3OC)c3ncccc23)nc2c(C(=O)N[C@H]3CC[C@@H]3OC)cnn12 [Compound I-637], the IC50 is reported as under 0.1 µM.
CNc1cc(Nc2cccn([C@H]3C[C@@H](OC)C3)c2=O)nc2c(C(=O)N[C@H]3CC[C@@H]3F)cnn12 [Compound I-174] showed an IC50 of under 0.1 µM.
CNc1ccc(-c2cc(NC)n3ncc(C(=O)N[C@H]4CC[C@@H]4F)c3n2)n2ccnc12 [Compound I-481] gave an IC50 of under 0.1 µM.
For CNc1cc(Nc2cccn([C@@H]3CCC[C@@H](OC)C3)c2=O)nc2c(C(=O)NC3CC[C@@H]3F)cnn12 (stereo partly shown) [Compound I-227], the IC50 was under 0.1 µM.
For CNc1cc(-c2cn([C@@H]3CCN(C)C3)c3ncccc23)nc2c(C(=O)NC3CCC3(F)F)cnn12 (stereo partly shown) [Compound I-686], the IC50 was under 0.1 µM.
Compound CNc1cc(Nc2cccn(C3CC(F)(F)C3)c2=O)nc2c(C(=O)N[C@@H]3C[C@H]3OC)cnn12 [Compound I-139] has an IC50 of under 0.1 µM.
For CO[C@@H]1CCC1NC(=O)c1cnn2c3c(c(Nc4cccn(C(C)C)c4=O)nc12)OCCN3 (stereo in doubt) [Compound I-759, 5-((1-Isopropyl-2-oxo-1,2-dihydropyridin-3-yl)amino)-N-(2-methoxycyclobutyl)-2,3-dihydro-1H-pyrazolo[5′,1′:2,3]pyrimido[5,4-b][1,4]oxazine-7-carboxamide], the IC50 (0.5 h) was under 0.1 µM.
Work on CNc1cc(-c2cnc3n([C@H]4CCOC4)cccc2-3)nc2c(C(=O)NC3CC[C@@H]3OC)cnn12 (stereo partly drawn) [Compound I-994, N-(2-methoxycyclobutyl)-7-(methylamino)-5-(7-((S)-tetrahydrofuran-3-yl)-7H-pyrrolo[2,3-b]pyridin-3-yl)pyrazolo[1,5-a]pyrimidine-3-carboxamide] yielded an IC50 (0.5 h) of under 0.1 µM.
With CNc1cc(Nc2cccn([C@H]3C[C@@H]3OC)c2=O)nc2c(C(=O)N[C@H]3CC[C@@H]3F)cnn12 [Compound I-158] the IC50 was under 0.1 µM.
CNc1cc(Nc2cccn([C@H]3C[C@H](F)C3)c2=O)nc2c(C(=O)N[C@H]3CC[C@@H]3F)cnn12 [Compound I-165] was tested, and the IC50 was under 0.1 µM.
In the case of CNc1cc(Nc2cccn(C3CCOCC3)c2=O)nc2c(C(=O)N[C@H]3CC[C@H]3F)cnn12 [Compound I-192], the IC50 is reported as under 0.1 µM.
For CNc1cc(-c2cn([C@@H]3CN(C)C[C@H]3OC)c3ncccc23)nc2c(C(=O)NC3CC[C@@H]3OC)cnn12 (stereo partly shown) [Compound I-645], the IC50 was under 0.1 µM.
For CNc1cc(-c2cn([C@H]3CC3(F)F)c3ncccc23)nc2c(C(=O)NC3COC[C@H]3O)cnn12 (stereo partly shown) [Compound I-709], the IC50 was 0.1 to 0.5 µM.
Compound CNc1cc(-c2cn([C@H]3[C@@H]4COC[C@@H]43)c3ncccc23)nc2c(C(=O)N[C@H]3CC[C@@H]3OC)cnn12 [Compound I-793, 5-(1-((1R,5S,6r)-3-oxabicyclo[3.1.0]hexan-6-yl)-1H-pyrrolo[2,3-b]pyridin-3-yl)-N-((1S,2S)-2-methoxycyclobutyl)-7-(methylamino)pyrazolo[1,5-a]pyrimidine-3-carboxamide] has an IC50 of under 0.1 µM.
CNc1cc(-c2cn(C3CN(C)C3)c3ncccc23)nc2c(C(=O)NC3CCC3(F)F)cnn12 (stereo not shown) [Compound I-676] showed an IC50 of under 0.1 µM.
In the case of CNc1cc(-c2cnc3n([C@@H]4COC[C@H]4OC)cccc2-3)nc2c(C(=O)N[C@@H]3CC[C@H]3OC)cnn12 [Compound I-884], the IC50 is reported as under 0.1 µM.
CNc1cc(-c2cnc3n([C@@H]4COC[C@H]4OC)cccc2-3)nc2c(C(=O)NC3CC[C@H]3F)cnn12 (stereo partly shown) [Compound I-841] showed an IC50 of under 0.1 µM.
Work on CNc1cc(Nc2cccn([C@H]3CC[C@@H](OC)CC3)c2=O)nc2c(C(=O)N[C@@H]3CC[C@@]3(C)OC)cnn12 [Compound I-431] yielded an IC50 of under 0.1 µM.
